Laboratory results: the NIST ThermoML archive (doi:10.1016/j.jct.2013.06.020)
Numbers after ± are expanded uncertainties.

Assay: mn = molality of the nth substance listed, in mol/kg
Details: 298.15 K, 101 kPa, Liquid; for speed of sound: Sing-around technique in a fixed-path interferometer; for mass density: Vibrating tube method

O=Cc1ccco1 [2-furaldehyde] + O
speed of sound (m1 = 0.0542): 1499.1 ± 1.2 m/s
speed of sound (m1 = 0.0556): 1499.2 ± 1.2 m/s
speed of sound (m1 = 0.0607): 1499.4 ± 1.2 m/s
speed of sound (m1 = 0.0653): 1499.6 ± 1.2 m/s
speed of sound (m1 = 0.0686): 1499.7 ± 1.2 m/s
speed of sound (m1 = 0.075): 1500 ± 1.2 m/s
speed of sound (m1 = 0.0801): 1500.2 ± 1.2 m/s
speed of sound (m1 = 0.089): 1500.6 ± 1.2 m/s
speed of sound (m1 = 0.1095): 1501.4 ± 1.2 m/s
speed of sound (m1 = 0.1179): 1501.8 ± 1.2 m/s
speed of sound (m1 = 0.1332): 1502.3 ± 1.2 m/s
speed of sound (m1 = 0.1717): 1504 ± 1.2 m/s
speed of sound (m1 = 0.2053): 1505.3 ± 1.2 m/s
speed of sound (m1 = 0.2309): 1506.1 ± 1.2 m/s
speed of sound (m1 = 0.3092): 1508.9 ± 1.2 m/s
speed of sound (m1 = 0.3436): 1510 ± 1.2 m/s
speed of sound (m1 = 0.4132): 1512.3 ± 1.2 m/s
speed of sound (m1 = 0.5112): 1515.2 ± 1.2 m/s
speed of sound (m1 = 0.5559): 1516.5 ± 1.2 m/s
speed of sound (m1 = 0.6557): 1518.7 ± 1.2 m/s
speed of sound (m1 = 0.8368): 1522 ± 1.2 m/s
speed of sound (m1 = 0.9225): 1523.5 ± 1.2 m/s
mass density (m1 = 0.0542): 998.113 ± 0.11 kg/m3
mass density (m1 = 0.0556): 998.137 ± 0.11 kg/m3
mass density (m1 = 0.0607): 998.217 ± 0.11 kg/m3
mass density (m1 = 0.0653): 998.295 ± 0.11 kg/m3
mass density (m1 = 0.0686): 998.351 ± 0.11 kg/m3
mass density (m1 = 0.075): 998.453 ± 0.11 kg/m3
mass density (m1 = 0.0801): 998.537 ± 0.11 kg/m3
mass density (m1 = 0.089): 998.69 ± 0.11 kg/m3
mass density (m1 = 0.1095): 999.037 ± 0.11 kg/m3
mass density (m1 = 0.1179): 999.174 ± 0.11 kg/m3
mass density (m1 = 0.1332): 999.425 ± 0.11 kg/m3
mass density (m1 = 0.1717): 1000.07 ± 0.11 kg/m3
mass density (m1 = 0.2053): 1000.62 ± 0.11 kg/m3
mass density (m1 = 0.2309): 1001.03 ± 0.11 kg/m3
mass density (m1 = 0.3092): 1002.32 ± 0.11 kg/m3
mass density (m1 = 0.3436): 1002.87 ± 0.11 kg/m3
mass density (m1 = 0.4132): 1003.97 ± 0.11 kg/m3
mass density (m1 = 0.5112): 1005.51 ± 0.11 kg/m3
mass density (m1 = 0.5559): 1006.19 ± 0.11 kg/m3
mass density (m1 = 0.6557): 1007.7 ± 0.11 kg/m3
mass density (m1 = 0.8368): 1010.35 ± 0.11 kg/m3
mass density (m1 = 0.9225): 1011.55 ± 0.11 kg/m3

OCC1CCCO1 (centres undefined) [2-tetrahydrofurylmethanol] + O
speed of sound (m1 = 0.0115): 1497.2 ± 1.2 m/s
speed of sound (m1 = 0.0127): 1497.4 ± 1.2 m/s
speed of sound (m1 = 0.0141): 1497.6 ± 1.2 m/s
speed of sound (m1 = 0.0149): 1497.7 ± 1.2 m/s
speed of sound (m1 = 0.0183): 1498.1 ± 1.2 m/s
speed of sound (m1 = 0.0193): 1498.2 ± 1.2 m/s
speed of sound (m1 = 0.0223): 1498.4 ± 1.2 m/s
speed of sound (m1 = 0.0281): 1498.5 ± 1.2 m/s
speed of sound (m1 = 0.0286): 1498.5 ± 1.2 m/s
speed of sound (m1 = 0.0337): 1498.7 ± 1.2 m/s
speed of sound (m1 = 0.0441): 1499.3 ± 1.2 m/s
speed of sound (m1 = 0.0462): 1499.5 ± 1.2 m/s
speed of sound (m1 = 0.0496): 1499.6 ± 1.2 m/s
speed of sound (m1 = 0.0584): 1500.3 ± 1.2 m/s
speed of sound (m1 = 0.0686): 1500.9 ± 1.2 m/s
speed of sound (m1 = 0.0731): 1501.1 ± 1.2 m/s
speed of sound (m1 = 0.0948): 1502.4 ± 1.2 m/s
speed of sound (m1 = 0.1082): 1503.2 ± 1.2 m/s
speed of sound (m1 = 0.1478): 1505.6 ± 1.2 m/s
speed of sound (m1 = 0.2077): 1509 ± 1.2 m/s
speed of sound (m1 = 0.2552): 1511.8 ± 1.2 m/s
speed of sound (m1 = 0.35): 1517.1 ± 1.2 m/s
speed of sound (m1 = 0.4904): 1524.9 ± 1.2 m/s
speed of sound (m1 = 0.678): 1534.7 ± 1.2 m/s
speed of sound (m1 = 1.16): 1557.2 ± 1.2 m/s
speed of sound (m1 = 1.996): 1589.1 ± 1.2 m/s
speed of sound (m1 = 2.959): 1614.9 ± 1.3 m/s
speed of sound (m1 = 3.175): 1620.8 ± 1.3 m/s
speed of sound (m1 = 3.559): 1630.1 ± 1.3 m/s
speed of sound (m1 = 5.556): 1672.3 ± 1.3 m/s
mass density (m1 = 0.0115): 997.245 ± 0.11 kg/m3
mass density (m1 = 0.0127): 997.265 ± 0.11 kg/m3
mass density (m1 = 0.0141): 997.289 ± 0.11 kg/m3
mass density (m1 = 0.0149): 997.301 ± 0.11 kg/m3
mass density (m1 = 0.0183): 997.356 ± 0.11 kg/m3
mass density (m1 = 0.0193): 997.373 ± 0.11 kg/m3
mass density (m1 = 0.0223): 997.421 ± 0.11 kg/m3
mass density (m1 = 0.0281): 997.511 ± 0.11 kg/m3
mass density (m1 = 0.0286): 997.518 ± 0.11 kg/m3
mass density (m1 = 0.0337): 997.596 ± 0.11 kg/m3
mass density (m1 = 0.0441): 997.835 ± 0.11 kg/m3
mass density (m1 = 0.0462): 997.862 ± 0.11 kg/m3
mass density (m1 = 0.0496): 997.893 ± 0.11 kg/m3
mass density (m1 = 0.0584): 998.028 ± 0.11 kg/m3
mass density (m1 = 0.0686): 998.155 ± 0.11 kg/m3
mass density (m1 = 0.0731): 998.209 ± 0.11 kg/m3
mass density (m1 = 0.0948): 998.467 ± 0.11 kg/m3
mass density (m1 = 0.1082): 998.66 ± 0.11 kg/m3
mass density (m1 = 0.1478): 999.071 ± 0.11 kg/m3
mass density (m1 = 0.2077): 999.663 ± 0.11 kg/m3
mass density (m1 = 0.2552): 1000.11 ± 0.11 kg/m3
mass density (m1 = 0.35): 1000.98 ± 0.11 kg/m3
mass density (m1 = 0.4904): 1002.2 ± 0.11 kg/m3
mass density (m1 = 0.678): 1003.77 ± 0.11 kg/m3
mass density (m1 = 1.16): 1007.55 ± 0.11 kg/m3
mass density (m1 = 1.996): 1013.36 ± 0.11 kg/m3
mass density (m1 = 2.959): 1020.27 ± 0.12 kg/m3
mass density (m1 = 3.175): 1021.74 ± 0.12 kg/m3
mass density (m1 = 3.559): 1024.37 ± 0.12 kg/m3
mass density (m1 = 5.556): 1036.45 ± 0.13 kg/m3

CCCCOC(=O)CCC(C)=O [butyl levulinate] + O
speed of sound (m1 = 0.0029): 1497.3 ± 1.2 m/s
speed of sound (m1 = 0.0037): 1497.5 ± 1.2 m/s
speed of sound (m1 = 0.005): 1497.6 ± 1.2 m/s
speed of sound (m1 = 0.0055): 1497.6 ± 1.2 m/s
speed of sound (m1 = 0.0059): 1497.7 ± 1.2 m/s
speed of sound (m1 = 0.0074): 1497.9 ± 1.2 m/s
speed of sound (m1 = 0.0083): 1497.9 ± 1.2 m/s
speed of sound (m1 = 0.0088): 1497.9 ± 1.2 m/s
speed of sound (m1 = 0.011): 1498.2 ± 1.2 m/s
speed of sound (m1 = 0.0128): 1498.4 ± 1.2 m/s
speed of sound (m1 = 0.0135): 1498.5 ± 1.2 m/s
speed of sound (m1 = 0.0142): 1498.5 ± 1.2 m/s
speed of sound (m1 = 0.0208): 1499.1 ± 1.2 m/s
speed of sound (m1 = 0.0219): 1499.4 ± 1.2 m/s
speed of sound (m1 = 0.0257): 1499.7 ± 1.2 m/s
speed of sound (m1 = 0.0303): 1500 ± 1.2 m/s
speed of sound (m1 = 0.0312): 1500.1 ± 1.2 m/s
speed of sound (m1 = 0.0357): 1500.6 ± 1.2 m/s
speed of sound (m1 = 0.0466): 1501.4 ± 1.2 m/s
speed of sound (m1 = 0.0522): 1501.8 ± 1.2 m/s
speed of sound (m1 = 0.0625): 1502.5 ± 1.2 m/s
mass density (m1 = 0.0029): 997.066 ± 0.11 kg/m3
mass density (m1 = 0.0037): 997.071 ± 0.11 kg/m3
mass density (m1 = 0.005): 997.078 ± 0.11 kg/m3
mass density (m1 = 0.0055): 997.08 ± 0.11 kg/m3
mass density (m1 = 0.0059): 997.081 ± 0.11 kg/m3
mass density (m1 = 0.0074): 997.088 ± 0.11 kg/m3
mass density (m1 = 0.0083): 997.093 ± 0.11 kg/m3
mass density (m1 = 0.0088): 997.096 ± 0.11 kg/m3
mass density (m1 = 0.011): 997.107 ± 0.11 kg/m3
mass density (m1 = 0.0128): 997.114 ± 0.11 kg/m3
mass density (m1 = 0.0135): 997.123 ± 0.11 kg/m3
mass density (m1 = 0.0142): 997.124 ± 0.11 kg/m3
mass density (m1 = 0.0208): 997.158 ± 0.11 kg/m3
mass density (m1 = 0.0219): 997.163 ± 0.11 kg/m3
mass density (m1 = 0.0257): 997.183 ± 0.11 kg/m3
mass density (m1 = 0.0303): 997.197 ± 0.11 kg/m3
mass density (m1 = 0.0312): 997.209 ± 0.11 kg/m3
mass density (m1 = 0.0357): 997.23 ± 0.11 kg/m3
mass density (m1 = 0.0466): 997.273 ± 0.11 kg/m3
mass density (m1 = 0.0522): 997.303 ± 0.11 kg/m3
mass density (m1 = 0.0625): 997.333 ± 0.11 kg/m3

CCOC(=O)CCC(C)=O [ethyl levulinate] + O
speed of sound (m1 = 0.0358): 1499.2 ± 1.2 m/s
speed of sound (m1 = 0.0404): 1499.6 ± 1.2 m/s
speed of sound (m1 = 0.0431): 1499.8 ± 1.2 m/s
speed of sound (m1 = 0.0492): 1500.2 ± 1.2 m/s
speed of sound (m1 = 0.0555): 1500.7 ± 1.2 m/s
speed of sound (m1 = 0.0696): 1501.6 ± 1.2 m/s
speed of sound (m1 = 0.0752): 1502 ± 1.2 m/s
speed of sound (m1 = 0.0921): 1503.1 ± 1.2 m/s
speed of sound (m1 = 0.1048): 1504 ± 1.2 m/s
speed of sound (m1 = 0.148): 1507.1 ± 1.2 m/s
speed of sound (m1 = 0.2329): 1512.1 ± 1.2 m/s
speed of sound (m1 = 0.2893): 1515.5 ± 1.2 m/s
speed of sound (m1 = 0.3426): 1518.5 ± 1.2 m/s
speed of sound (m1 = 0.4292): 1523.1 ± 1.2 m/s
speed of sound (m1 = 0.4826): 1525.7 ± 1.2 m/s
speed of sound (m1 = 0.5834): 1530.3 ± 1.2 m/s
speed of sound (m1 = 0.7128): 1535.5 ± 1.2 m/s
speed of sound (m1 = 0.8299): 1539.5 ± 1.2 m/s
speed of sound (m1 = 1.037): 1545 ± 1.2 m/s
mass density (m1 = 0.0358): 997.518 ± 0.11 kg/m3
mass density (m1 = 0.0404): 997.561 ± 0.11 kg/m3
mass density (m1 = 0.0431): 997.587 ± 0.11 kg/m3
mass density (m1 = 0.0492): 997.643 ± 0.11 kg/m3
mass density (m1 = 0.0555): 997.699 ± 0.11 kg/m3
mass density (m1 = 0.0696): 997.825 ± 0.11 kg/m3
mass density (m1 = 0.0752): 997.876 ± 0.11 kg/m3
mass density (m1 = 0.0921): 998.027 ± 0.11 kg/m3
mass density (m1 = 0.1048): 998.143 ± 0.11 kg/m3
mass density (m1 = 0.148): 998.527 ± 0.11 kg/m3
mass density (m1 = 0.2329): 999.277 ± 0.11 kg/m3
mass density (m1 = 0.2893): 999.76 ± 0.11 kg/m3
mass density (m1 = 0.3426): 1000.21 ± 0.11 kg/m3
mass density (m1 = 0.4292): 1000.93 ± 0.11 kg/m3
mass density (m1 = 0.4826): 1001.36 ± 0.11 kg/m3
mass density (m1 = 0.5834): 1002.14 ± 0.11 kg/m3
mass density (m1 = 0.7128): 1003.11 ± 0.11 kg/m3
mass density (m1 = 0.8299): 1003.94 ± 0.11 kg/m3
mass density (m1 = 1.037): 1005.27 ± 0.11 kg/m3
